# Measured values published in US10710978B2, “STK4 inhibitors for treatment of hematologic malignancies” (Dana-Farber Cancer Institute, Inc., priority 2015, dated 2020).
# Values joined by “and” are separate entries in the source; they are usually repeats but may differ in a detail not shown here. Equal values may be shown once. Read-outs that look alike come from different tables or passages of the source.
# Columns and labels:
# Assay in all cases: KiNativ assay
# Format in all cases: binding
# FER = FER (Homo sapiens (Human), UniProt P16591); settings: H929 live cell
# Protocol: (§1) Biochemical IC50s of the compounds of the present disclosure against various kinases were measured in a KiNativ assay. Compounds were screened in duplicate at 10 μM in H929 live cell. IC50 was measured via Mass spectroscopy (MS).
# MAP2K6 = MAP2K6 (Homo sapiens (Human), UniProt P52564); settings: H929 live cell
# Protocol: as §1
# NuaK1 = NuaK1 (Homo sapiens (Human), UniProt O60285); settings: H929 live cell
# Protocol: as §1
# ATR = ATR (Homo sapiens (Human), UniProt Q13535); settings: H929 live cell
# Protocol: as §1
# AurB = AurB (Homo sapiens (Human), UniProt Q96GD4); settings: H929 live cell
# Protocol: as §1
# JAK1 domain1 = JAK1 domain1 (Homo sapiens (Human), UniProt P23458); settings: H929 live cell
# Protocol: as §1
# MARK4 = MARK4 (Homo sapiens (Human), UniProt Q96L34); settings: H929 live cell, read-out: inhibition (10 μM)
# Protocol: as §1
# RSK2 domain1 = RSK2 domain1 (Homo sapiens (Human), UniProt P51812); settings: H929 live cell
# Protocol: as §1
# HPK1 = HPK1 (Homo sapiens (Human), UniProt Q92918); settings: H929 live cell
# Protocol: as §1
# STLK5 = STLK5 (Homo sapiens (Human), UniProt Q7RTN6); settings: H929 live cell
# Protocol: as §1
# PEK = PEK (Homo sapiens (Human), UniProt Q9NZJ5); settings: H929 live cell
# Protocol: as §1
# CHK2 = CHK2 (Homo sapiens (Human), UniProt O96017); settings: H929 live cell
# Protocol: as §1
# AurA, AurB, AurC = settings: H929 live cell
# Protocol: as §1
# [1] = test system: CaMK2a, CaMK2b, CaMK2d, CaMK2g; settings: H929 live cell
# Protocol: as §1
# MAP3K1 = MAP3K1 (Homo sapiens (Human), UniProt Q13233); settings: H929 live cell
# Protocol: as §1
# p70S6K = p70S6K (Homo sapiens (Human), UniProt P23443); settings: H929 live cell
# Protocol: as §1
# CK1g3 = CK1g3 (Homo sapiens (Human), UniProt Q9Y6M4); settings: H929 live cell
# Protocol: as §1
# NEK3 = NEK3 (Homo sapiens (Human), UniProt P51956); settings: H929 live cell
# Protocol: as §1
# ZAK = ZAK (Homo sapiens (Human), UniProt Q9NYL2); settings: H929 live cell
# Protocol: as §1
# TBK1 = TBK1 (Homo sapiens (Human), UniProt Q9UHD2); settings: H929 live cell
# Protocol: as §1
# NEK9 = NEK9 (Homo sapiens (Human), UniProt Q8TD19); settings: H929 live cell
# Protocol: as §1
# NEK4 = NEK4 (Homo sapiens (Human), UniProt P51957); settings: H929 live cell
# Protocol: as §1
# BRAF = BRAF (Homo sapiens (Human), UniProt P15056); settings: H929 live cell
# Protocol: as §1
# NuaK2 = NuaK2 (Homo sapiens (Human), UniProt Q9H093); settings: H929 live cell
# Protocol: as §1
# MARK1, MARK2 = settings: H929 live cell
# Protocol: as §1
# MAP3K2, MAP3K3 = settings: H929 live cell
# Protocol: as §1
# MARK3 = MARK3 (Homo sapiens (Human), UniProt P27448); settings: H929 live cell
# Protocol: as §1
# SNRK = SNRK (Homo sapiens (Human), UniProt Q9NRH2); settings: H929 live cell
# Protocol: as §1
# PKCi = PKCi (Homo sapiens (Human), UniProt P41743); settings: H929 live cell
# Protocol: as §1
# MASTL = MASTL (Homo sapiens (Human), UniProt Q96GX5); settings: H929 live cell
# Protocol: as §1
# MAST3 = MAST3 (Homo sapiens (Human), UniProt O60307); settings: H929 live cell
# Protocol: as §1
# MAP3K4 = MAP3K4 (Homo sapiens (Human), UniProt Q9Y6R4); settings: H929 live cell
# Protocol: as §1
# PIP4K2A = PIP4K2A (Homo sapiens (Human), UniProt P48426); settings: H929 live cell
# Protocol: as §1
# NuaK1, sequence (O60285 whole entry): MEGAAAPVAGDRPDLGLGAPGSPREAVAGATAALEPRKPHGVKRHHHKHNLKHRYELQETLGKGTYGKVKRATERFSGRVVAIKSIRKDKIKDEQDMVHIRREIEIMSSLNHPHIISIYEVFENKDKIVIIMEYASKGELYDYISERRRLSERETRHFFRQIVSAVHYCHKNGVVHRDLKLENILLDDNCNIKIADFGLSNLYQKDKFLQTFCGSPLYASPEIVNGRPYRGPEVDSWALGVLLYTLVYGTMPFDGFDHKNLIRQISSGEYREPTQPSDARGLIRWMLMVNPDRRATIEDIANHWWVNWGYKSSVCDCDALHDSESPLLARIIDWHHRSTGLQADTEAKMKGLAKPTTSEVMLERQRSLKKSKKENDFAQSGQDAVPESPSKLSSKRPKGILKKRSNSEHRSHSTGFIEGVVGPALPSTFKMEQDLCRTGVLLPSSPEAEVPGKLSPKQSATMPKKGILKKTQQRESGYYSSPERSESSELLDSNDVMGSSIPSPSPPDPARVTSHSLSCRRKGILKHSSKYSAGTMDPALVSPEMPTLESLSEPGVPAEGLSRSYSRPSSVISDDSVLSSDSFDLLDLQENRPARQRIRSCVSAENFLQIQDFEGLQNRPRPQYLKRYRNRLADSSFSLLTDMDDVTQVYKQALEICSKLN
# HPK1, sequence (Q92918 whole entry): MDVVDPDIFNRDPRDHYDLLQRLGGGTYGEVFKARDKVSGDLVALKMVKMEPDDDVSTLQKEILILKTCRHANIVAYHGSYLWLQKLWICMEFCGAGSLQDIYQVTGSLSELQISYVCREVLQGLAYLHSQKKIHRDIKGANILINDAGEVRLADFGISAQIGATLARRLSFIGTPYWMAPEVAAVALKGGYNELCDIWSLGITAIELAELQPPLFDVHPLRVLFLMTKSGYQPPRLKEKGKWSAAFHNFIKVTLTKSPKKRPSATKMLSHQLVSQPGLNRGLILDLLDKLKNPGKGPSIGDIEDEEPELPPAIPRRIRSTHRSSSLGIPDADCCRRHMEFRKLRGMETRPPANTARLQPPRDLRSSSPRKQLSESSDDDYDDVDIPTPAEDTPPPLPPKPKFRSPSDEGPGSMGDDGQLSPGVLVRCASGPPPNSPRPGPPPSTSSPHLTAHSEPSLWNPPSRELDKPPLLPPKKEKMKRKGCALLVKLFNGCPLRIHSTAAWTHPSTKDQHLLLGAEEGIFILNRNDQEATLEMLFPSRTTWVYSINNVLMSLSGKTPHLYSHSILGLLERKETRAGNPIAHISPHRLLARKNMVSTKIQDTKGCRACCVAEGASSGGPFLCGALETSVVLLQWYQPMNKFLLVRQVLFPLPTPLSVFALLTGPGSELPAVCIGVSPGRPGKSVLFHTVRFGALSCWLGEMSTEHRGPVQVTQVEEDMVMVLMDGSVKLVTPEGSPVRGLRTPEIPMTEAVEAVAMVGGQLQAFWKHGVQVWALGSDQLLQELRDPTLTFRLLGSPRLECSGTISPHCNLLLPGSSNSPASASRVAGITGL
# MAP3K1, sequence (Q13233 whole entry): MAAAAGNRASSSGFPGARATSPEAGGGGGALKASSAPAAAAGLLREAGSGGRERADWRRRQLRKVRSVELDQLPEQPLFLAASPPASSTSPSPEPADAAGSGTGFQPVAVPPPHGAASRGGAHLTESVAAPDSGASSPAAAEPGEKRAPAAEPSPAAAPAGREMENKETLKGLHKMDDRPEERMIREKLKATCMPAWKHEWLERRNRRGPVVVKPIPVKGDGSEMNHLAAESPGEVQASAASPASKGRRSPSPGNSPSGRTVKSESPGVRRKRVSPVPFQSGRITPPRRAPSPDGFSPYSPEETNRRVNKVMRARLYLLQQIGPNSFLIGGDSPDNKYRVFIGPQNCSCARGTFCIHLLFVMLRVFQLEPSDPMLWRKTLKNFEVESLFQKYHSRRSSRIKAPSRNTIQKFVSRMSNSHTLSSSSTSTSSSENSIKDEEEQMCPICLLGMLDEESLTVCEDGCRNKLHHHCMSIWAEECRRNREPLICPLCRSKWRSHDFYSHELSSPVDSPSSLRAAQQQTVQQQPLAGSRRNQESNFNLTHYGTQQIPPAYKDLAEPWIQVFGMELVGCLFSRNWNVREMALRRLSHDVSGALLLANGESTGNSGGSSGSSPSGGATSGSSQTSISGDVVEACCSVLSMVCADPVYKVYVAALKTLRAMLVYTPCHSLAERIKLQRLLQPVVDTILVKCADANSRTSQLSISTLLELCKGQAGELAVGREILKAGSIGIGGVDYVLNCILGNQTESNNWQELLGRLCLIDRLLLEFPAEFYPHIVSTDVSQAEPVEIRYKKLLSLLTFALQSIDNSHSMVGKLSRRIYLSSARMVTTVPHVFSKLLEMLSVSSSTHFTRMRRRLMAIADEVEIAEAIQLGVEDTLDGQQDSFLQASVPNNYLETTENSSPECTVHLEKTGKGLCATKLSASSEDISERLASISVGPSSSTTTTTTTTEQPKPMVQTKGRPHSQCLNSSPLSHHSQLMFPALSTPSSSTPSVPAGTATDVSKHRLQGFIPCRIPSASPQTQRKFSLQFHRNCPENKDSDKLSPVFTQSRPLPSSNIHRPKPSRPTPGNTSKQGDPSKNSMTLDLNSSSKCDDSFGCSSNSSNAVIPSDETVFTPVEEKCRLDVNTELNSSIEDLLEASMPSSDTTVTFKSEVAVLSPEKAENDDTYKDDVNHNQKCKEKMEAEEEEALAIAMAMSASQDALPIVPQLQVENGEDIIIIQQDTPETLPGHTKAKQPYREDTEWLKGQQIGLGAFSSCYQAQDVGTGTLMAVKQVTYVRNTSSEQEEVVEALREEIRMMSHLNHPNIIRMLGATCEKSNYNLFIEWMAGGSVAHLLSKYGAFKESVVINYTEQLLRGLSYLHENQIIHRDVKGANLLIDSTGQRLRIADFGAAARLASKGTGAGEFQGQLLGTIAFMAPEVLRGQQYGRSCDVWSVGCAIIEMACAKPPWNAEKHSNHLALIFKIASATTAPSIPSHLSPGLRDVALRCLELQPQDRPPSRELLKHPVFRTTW
# MAST3, sequence (O60307 whole entry): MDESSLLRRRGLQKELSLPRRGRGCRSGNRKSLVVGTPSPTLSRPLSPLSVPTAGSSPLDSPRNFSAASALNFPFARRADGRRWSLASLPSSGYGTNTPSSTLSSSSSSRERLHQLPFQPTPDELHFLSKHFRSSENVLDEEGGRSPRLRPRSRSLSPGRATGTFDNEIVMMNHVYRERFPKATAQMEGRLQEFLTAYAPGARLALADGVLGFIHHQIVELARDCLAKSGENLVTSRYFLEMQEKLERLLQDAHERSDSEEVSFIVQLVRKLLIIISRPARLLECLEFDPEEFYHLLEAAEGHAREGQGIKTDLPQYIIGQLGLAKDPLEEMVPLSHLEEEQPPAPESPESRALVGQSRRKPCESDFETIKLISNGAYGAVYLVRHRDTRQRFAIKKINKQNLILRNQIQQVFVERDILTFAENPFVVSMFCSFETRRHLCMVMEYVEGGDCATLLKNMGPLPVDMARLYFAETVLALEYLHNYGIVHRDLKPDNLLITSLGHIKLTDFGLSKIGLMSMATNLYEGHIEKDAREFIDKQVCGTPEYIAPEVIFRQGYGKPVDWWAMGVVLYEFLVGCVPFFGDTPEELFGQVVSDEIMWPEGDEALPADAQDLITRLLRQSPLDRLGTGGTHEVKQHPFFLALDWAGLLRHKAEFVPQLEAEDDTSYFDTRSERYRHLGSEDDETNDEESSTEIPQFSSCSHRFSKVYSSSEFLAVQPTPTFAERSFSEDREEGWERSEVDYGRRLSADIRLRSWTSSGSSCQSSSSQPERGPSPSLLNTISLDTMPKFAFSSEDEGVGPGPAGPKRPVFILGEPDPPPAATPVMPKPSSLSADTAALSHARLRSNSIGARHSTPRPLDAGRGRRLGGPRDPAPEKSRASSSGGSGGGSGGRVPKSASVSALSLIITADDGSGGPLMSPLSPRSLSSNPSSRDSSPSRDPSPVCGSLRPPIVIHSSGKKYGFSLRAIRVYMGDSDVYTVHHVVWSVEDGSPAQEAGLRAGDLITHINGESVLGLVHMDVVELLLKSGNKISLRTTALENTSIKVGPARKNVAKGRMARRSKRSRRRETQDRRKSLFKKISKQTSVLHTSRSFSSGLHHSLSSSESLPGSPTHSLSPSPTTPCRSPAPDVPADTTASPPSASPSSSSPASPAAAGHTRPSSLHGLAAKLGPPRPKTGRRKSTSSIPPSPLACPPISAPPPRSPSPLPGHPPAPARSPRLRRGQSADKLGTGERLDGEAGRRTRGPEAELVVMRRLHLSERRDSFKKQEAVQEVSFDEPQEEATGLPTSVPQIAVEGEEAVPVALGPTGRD
# STLK5, sequence (Q7RTN6 whole entry): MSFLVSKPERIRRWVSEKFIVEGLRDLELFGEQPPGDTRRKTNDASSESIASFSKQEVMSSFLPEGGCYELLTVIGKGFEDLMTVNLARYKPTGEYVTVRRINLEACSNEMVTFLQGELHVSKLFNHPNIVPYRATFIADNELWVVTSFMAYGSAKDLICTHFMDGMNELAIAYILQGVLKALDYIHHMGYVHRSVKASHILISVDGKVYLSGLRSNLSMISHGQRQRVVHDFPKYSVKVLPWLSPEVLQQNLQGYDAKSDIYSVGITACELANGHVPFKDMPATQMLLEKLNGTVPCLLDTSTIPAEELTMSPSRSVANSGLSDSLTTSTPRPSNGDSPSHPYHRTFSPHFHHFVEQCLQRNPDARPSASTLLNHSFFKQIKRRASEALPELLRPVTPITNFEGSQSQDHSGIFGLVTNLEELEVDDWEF
# MAP2K6, sequence (P52564 whole entry): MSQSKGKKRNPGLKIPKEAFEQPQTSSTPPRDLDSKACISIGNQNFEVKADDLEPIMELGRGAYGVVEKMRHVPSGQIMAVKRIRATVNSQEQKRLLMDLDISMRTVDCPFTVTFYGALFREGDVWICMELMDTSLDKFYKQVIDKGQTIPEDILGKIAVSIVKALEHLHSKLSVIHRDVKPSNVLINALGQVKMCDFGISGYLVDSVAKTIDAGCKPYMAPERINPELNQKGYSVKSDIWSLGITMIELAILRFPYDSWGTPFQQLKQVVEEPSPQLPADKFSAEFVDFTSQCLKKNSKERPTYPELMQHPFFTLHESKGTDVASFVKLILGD
structure (smiles),measurement,setting,value
"Nc1ncc(-c2cccc3ncsc23)cc1-c1ccc2c(c1)CCNC2=O [Compound I-13, 6-(2-amino-5-(benzo[d]thiazol-7-yl)pyridin-3-yl)-3,4-dihydroisoquinolin-1(2H)-one]",inhibition at 10 µM,FER; read-out: % inhibition (range),0%
same,inhibition at 10 µM,FER; read-out: inhibition (10 μM),4.2%
same,inhibition at 10 µM,MAP2K6; read-out: % inhibition (range),0%
same,inhibition at 10 µM,MAP2K6; read-out: inhibition (10 μM),4.3%
same,% inhibition (range),NuaK1; 10 μM,50-75% and 75-90%
same,inhibition (10 μM),NuaK1,83.7%
same,inhibition at 10 µM,NuaK1; read-out: inhibition (10 μM),71.7%
same,inhibition at 10 µM,ATR; read-out: % inhibition (range),0%
same,inhibition at 10 µM,ATR; read-out: inhibition (10 μM),-16.1%
same,inhibition at 10 µM,AurB; read-out: % inhibition (range),0%
same,inhibition at 10 µM,AurB; read-out: inhibition (10 μM),20.7%
same,inhibition at 10 µM,JAK1 domain1; read-out: % inhibition (range),0%
same,inhibition at 10 µM,JAK1 domain1; read-out: inhibition (10 μM),-22.4%
same,inhibition at 10 µM,MARK4,39.8%
same,inhibition at 10 µM,RSK2 domain1; read-out: % inhibition (range),0%
same,inhibition at 10 µM,RSK2 domain1; read-out: inhibition (10 μM),19.2%
same,inhibition at 10 µM,HPK1; read-out: % inhibition (range),50 to 75%
same,inhibition at 10 µM,HPK1; read-out: inhibition (10 μM),52.1%
same,inhibition at 10 µM,STLK5; read-out: % inhibition (range),0%
same,inhibition at 10 µM,STLK5; read-out: inhibition (10 μM),9.9%
same,inhibition at 10 µM,PEK; read-out: % inhibition (range),0%
same,inhibition at 10 µM,PEK; read-out: inhibition (10 μM),-40.8%
same,inhibition at 10 µM,CHK2; read-out: % inhibition (range),0%
same,inhibition at 10 µM,CHK2; read-out: inhibition (10 μM),19.7%
same,% inhibition (range),"AurA, AurB, AurC; 10 μM",0.0%
same,inhibition (10 μM),"AurA, AurB, AurC",17.7%
same,% inhibition (range),[1]; 10 μM,0.0%
same,inhibition (10 μM),[1],−4.1%
same,inhibition at 10 µM,MAP3K1; read-out: % inhibition (range),> 90%
same,inhibition at 10 µM,MAP3K1; read-out: inhibition (10 μM),90.2%
same,inhibition at 10 µM,p70S6K; read-out: % inhibition (range),0%
same,inhibition at 10 µM,p70S6K; read-out: inhibition (10 μM),-14.3%
same,inhibition at 10 µM,CK1g3; read-out: % inhibition (range),> 90%
same,inhibition at 10 µM,CK1g3; read-out: inhibition (10 μM),90.4%
same,inhibition at 10 µM,NEK3; read-out: % inhibition (range),0%
same,inhibition at 10 µM,NEK3; read-out: inhibition (10 μM),5.3%
same,inhibition at 10 µM,ZAK; read-out: % inhibition (range),35 to 50%
same,inhibition at 10 µM,ZAK; read-out: inhibition (10 μM),44.9%
same,inhibition at 10 µM,TBK1; read-out: % inhibition (range),0%
same,inhibition at 10 µM,TBK1; read-out: inhibition (10 μM),-23.1%
same,inhibition at 10 µM,NEK9; read-out: % inhibition (range),0%
same,inhibition at 10 µM,NEK9; read-out: inhibition (10 μM),-10%
same,inhibition at 10 µM,NEK4; read-out: % inhibition (range),0%
same,inhibition at 10 µM,NEK4; read-out: inhibition (10 μM),4.7%
same,inhibition at 10 µM,BRAF; read-out: % inhibition (range),0%
same,inhibition at 10 µM,BRAF; read-out: inhibition (10 μM),10.2%
same,inhibition at 10 µM,NuaK2; read-out: % inhibition (range),50 to 75%
same,inhibition at 10 µM,NuaK2; read-out: inhibition (10 μM),53.9%
same,% inhibition (range),"MARK1, MARK2; 10 μM",0.0%
same,inhibition (10 μM),"MARK1, MARK2",2.9%
same,% inhibition (range),"MAP3K2, MAP3K3; 10 μM",0.0%
same,inhibition (10 μM),"MAP3K2, MAP3K3",0.2%
same,inhibition at 10 µM,MARK3; read-out: % inhibition (range),35 to 50%
same,inhibition at 10 µM,MARK3; read-out: inhibition (10 μM),46.2%
same,inhibition at 10 µM,SNRK; read-out: % inhibition (range),0%
same,inhibition at 10 µM,SNRK; read-out: inhibition (10 μM),6.2%
same,inhibition at 10 µM,PKCi; read-out: % inhibition (range),0%
same,inhibition at 10 µM,PKCi; read-out: inhibition (10 μM),21.4%
same,inhibition at 10 µM,MASTL; read-out: % inhibition (range),0%
same,inhibition at 10 µM,MASTL; read-out: inhibition (10 μM),-2%
same,inhibition at 10 µM,MAST3; read-out: % inhibition (range),0%
same,inhibition at 10 µM,MAST3; read-out: inhibition (10 μM),22%
same,inhibition at 10 µM,MAP3K4; read-out: % inhibition (range),0%
same,inhibition at 10 µM,MAP3K4; read-out: inhibition (10 μM),3%
same,inhibition at 10 µM,PIP4K2A; read-out: % inhibition (range),0%
same,inhibition at 10 µM,PIP4K2A; read-out: inhibition (10 μM),2.3%
